In ChEMBL document CHEMBL1201862, “PubChem BioAssay data set” (2004):
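Each compound was tested at five concentrations against cells in 96-well plates for 48 hours. Abbreviation: GI50, concentration required for 50% inhibition of growth.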 Active and inactive are the calls of the source. No stated cut-off is given here; in the data, active = GI50 up to about 1.1 µM and inactive = higher.

Tests used:
Assay in all cases: inhibition of tumour cell growth, NCI panel, 48 h
HCC 2998 = tested on: HCC 2998
SF-268 = tested on: SF-268
RPMI-8226 = tested on: RPMI-8226
HOP-62 = tested on: HOP-62
KM12 = tested on: KM12
PC-3 = tested on: PC-3
OVCAR-5 = tested on: OVCAR-5
IGROV-1 = tested on: IGROV-1
K562 = tested on: K562
Hs-578T = tested on: Hs-578T
MDA-MB-435 = tested on: MDA-MB-435
A549 = tested on: A549
SW-620 = tested on: SW-620
A498 = tested on: A498
NCI-H522 = tested on: NCI-H522
OVCAR-8 = tested on: OVCAR-8
OVCAR-4 = tested on: OVCAR-4
TK-10 = tested on: TK-10
SK-MEL-5 = tested on: SK-MEL-5
LOX IMVI = tested on: LOX IMVI

Compound | GI50 (HCC 2998) | GI50 (SF-268) | GI50 (RPMI-8226) | GI50 (HOP-62) | GI50 (KM12) | GI50 (PC-3) | GI50 (OVCAR-5) | GI50 (IGROV-1) | GI50 (K562) | GI50 (Hs-578T) | GI50 (MDA-MB-435) | GI50 (A549) | GI50 (SW-620) | GI50 (A498) | GI50 (NCI-H522) | GI50 (OVCAR-8) | GI50 (OVCAR-4) | GI50 (TK-10) | GI50 (SK-MEL-5) | GI50 (LOX IMVI)
CC[C@@H]1CC[C@@H]2[C@H](CC[C@]3(C)[C@@H](O[N+](=O)[O-])CC[C@@H]23)[C@H]1C(C)=O | 28 µM (inactive) | 24.5 µM (inactive) | 9.02 µM (inactive) | 46.3 µM (inactive) | 17.3 µM (inactive) | 28.9 µM (inactive) | 64.3 µM (inactive) | 34.7 µM (inactive) | 34.8 µM (inactive) | 44.7 µM (inactive) | 32.8 µM (inactive) | 28.4 µM (inactive) | 40.4 µM (inactive) | 31 µM (inactive) | 28.8 µM (inactive) | 37.2 µM (inactive) | 39 µM (inactive) | > 100 µM (inactive) | 19.7 µM (inactive) | 20 µM (inactive)
NC1=Nc2ccccc2Sc2nnc(-c3ccc(Cl)cc3)n21 | > 100 µM (inactive) | 19.5 µM (inactive) | 87.3 µM (inactive) | 23.7 µM (inactive) | 98.2 µM (inactive) | 16.5 µM (inactive) | > 100 µM (inactive) | 48.8 µM (inactive) | 12.2 µM (inactive) | 35.2 µM (inactive) | > 100 µM (inactive) | 49.3 µM (inactive) | 57.1 µM (inactive) | 20.4 µM (inactive) | 8.18 µM (inactive) | 26.7 µM (inactive) | > 100 µM (inactive) | 40.8 µM (inactive) | 68.5 µM (inactive) | 7.03 µM (inactive)
COC(=O)C12OC(C)(C(CC(=O)OC(C)(C)C)C1=O)C1C(=O)N(c3ccccc3)C(=O)C12 (stereo not given) | > 100 µM (inactive) | > 100 µM (inactive) | > 100 µM (inactive) | > 100 µM (inactive) | > 100 µM (inactive) | > 100 µM (inactive) | > 100 µM (inactive) | > 100 µM (inactive) | > 100 µM (inactive) | > 100 µM (inactive) | > 100 µM (inactive) | > 100 µM (inactive) | > 100 µM (inactive) | > 100 µM (inactive) | > 100 µM (inactive) | > 100 µM (inactive) | > 100 µM (inactive) | > 100 µM (inactive) | > 100 µM (inactive) | > 100 µM (inactive)
COc1cc2oc(=O)cc(C)c2cc1O | 3 µM (inactive) | > 100 µM (inactive) | > 100 µM (inactive) | > 100 µM (inactive) | > 100 µM (inactive) | > 100 µM (inactive) | > 100 µM (inactive) | > 100 µM (inactive) | > 100 µM (inactive) | > 100 µM (inactive) | > 100 µM (inactive) | > 100 µM (inactive) | > 100 µM (inactive) | > 100 µM (inactive) | > 100 µM (inactive) | > 100 µM (inactive) | > 100 µM (inactive) | > 100 µM (inactive) | > 100 µM (inactive) | > 100 µM (inactive)
COc1ccc(-c2c3c(cc4cc5c(cc24)OCO5)C(=O)OC3)cc1OC | 2.99 µM (inactive) | 5.85 µM (inactive) | 0.0447 µM (active) | 0.313 µM (active) | 1.77 µM (inactive) | 4.01 µM (inactive) | 9.55 µM (inactive) | 0.336 µM (active) | 0.69 µM (active) | 6.22 µM (inactive) | 2.43 µM (inactive) | 1.44 µM (inactive) | 2.19 µM (inactive) | 20.4 µM (inactive) | 0.392 µM (active) | 0.24 µM (active) | 2.47 µM (inactive) | 42.2 µM (inactive) | 0.119 µM (active) | 0.0164 µM (active)
